# Values of other authors as cited in patent US5250561A, “Tetrahydroindazole, tetrahydrocyclopentapyrazole, and hexahydrocycloheptapyrazole compounds and their use as HMG-COA reductase inhibitors” (Ortho Pharmaceutical Corporation, priority 1992, dated 1993).
# Experiments:
# [1] = cited from earlier work
# HMG-CoA reductase = settings: lovastatin: open dihydroxy acid form; cited from earlier work
Structure (SMILES),effect of combined administration with other hypolipidemic agents on LDL and total cholesterol concentrations ([1]; combination),reduction of LDL cholesterol levels compared with cholestyramine and probucol ([1]; primary hypercholesterolemia),increase in high density lipoprotein (HDL) cholesterol concentration ([1]; several large clinical studies),inhibition of HMG-CoA reductase (in words) (HMG-CoA reductase)
CC[C@H](C)C(=O)O[C@H]1C[C@@H](C)C=C2C=C[C@H](C)[C@H](CC[C@@H]3C[C@@H](O)CC(=O)O3)[C@H]21 [lovastatin],potentiate their effects on LDL and total cholesterol concentrations,reduced LDL cholesterol levels to a significantly greater extent,up to 10%,"reversible, competitive inhibitor of the enzyme"
CCC(C)(C)C(=O)O[C@H]1C[C@@H](C)C=C2C=C[C@H](C)[C@H](CC[C@@H]3C[C@@H](O)CC(=O)O3)[C@H]21 [simvastatin],,,,inhibitors of HMG-CoA reductase
